Reference: patent publication US9856224B2, “Stable sodium channel blockers” (PARION SCIENCES, INC., priority 2014, dated 2018)

Biological target: T1, airway epithelial sodium currents (epithelial sodium channel, ENaC) (Canis lupus familiaris, UniProt A0A8I3MKE6+A0A8I3Q679+Q95165)
T1 construct: endogenous in cells; host or cells: primary canine airway epithelial cells cultured at air-liquid interface, mounted in Ussing chambers
T1 sequence (A0A8I3Q679 1-649): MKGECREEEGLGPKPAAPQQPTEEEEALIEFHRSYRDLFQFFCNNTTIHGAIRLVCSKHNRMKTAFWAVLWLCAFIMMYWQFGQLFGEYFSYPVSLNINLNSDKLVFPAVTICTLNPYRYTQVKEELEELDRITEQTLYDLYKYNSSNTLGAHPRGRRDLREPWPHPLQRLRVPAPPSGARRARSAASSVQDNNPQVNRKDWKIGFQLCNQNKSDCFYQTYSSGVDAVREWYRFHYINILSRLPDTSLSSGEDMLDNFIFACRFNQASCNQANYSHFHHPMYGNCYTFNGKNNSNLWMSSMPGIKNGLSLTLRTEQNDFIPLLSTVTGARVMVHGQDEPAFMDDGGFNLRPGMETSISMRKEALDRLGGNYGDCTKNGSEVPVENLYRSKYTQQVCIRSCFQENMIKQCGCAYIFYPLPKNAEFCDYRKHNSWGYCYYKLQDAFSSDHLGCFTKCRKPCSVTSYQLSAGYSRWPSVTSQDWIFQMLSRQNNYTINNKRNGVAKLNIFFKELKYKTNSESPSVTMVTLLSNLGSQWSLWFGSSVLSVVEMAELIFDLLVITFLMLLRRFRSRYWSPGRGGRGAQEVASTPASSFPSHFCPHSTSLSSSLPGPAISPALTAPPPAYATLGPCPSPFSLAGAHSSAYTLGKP
T1 sequence (Q95165 1-641): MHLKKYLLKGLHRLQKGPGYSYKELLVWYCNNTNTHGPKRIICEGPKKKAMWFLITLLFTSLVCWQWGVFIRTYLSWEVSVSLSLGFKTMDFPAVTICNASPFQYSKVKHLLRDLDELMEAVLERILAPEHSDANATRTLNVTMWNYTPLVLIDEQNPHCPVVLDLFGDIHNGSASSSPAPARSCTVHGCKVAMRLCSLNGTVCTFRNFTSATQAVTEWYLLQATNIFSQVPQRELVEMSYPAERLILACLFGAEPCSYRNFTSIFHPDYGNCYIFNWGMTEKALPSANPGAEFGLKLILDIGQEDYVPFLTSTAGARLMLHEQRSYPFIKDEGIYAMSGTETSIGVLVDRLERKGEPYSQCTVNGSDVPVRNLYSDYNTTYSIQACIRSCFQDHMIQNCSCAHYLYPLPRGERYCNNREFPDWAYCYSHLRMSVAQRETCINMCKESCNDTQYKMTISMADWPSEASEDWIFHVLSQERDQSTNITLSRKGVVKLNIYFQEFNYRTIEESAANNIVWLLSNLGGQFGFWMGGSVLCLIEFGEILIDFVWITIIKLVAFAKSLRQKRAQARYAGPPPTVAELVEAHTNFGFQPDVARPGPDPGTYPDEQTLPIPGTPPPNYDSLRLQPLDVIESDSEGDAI
T1 sequence (A0A8I3MKE6 1-646): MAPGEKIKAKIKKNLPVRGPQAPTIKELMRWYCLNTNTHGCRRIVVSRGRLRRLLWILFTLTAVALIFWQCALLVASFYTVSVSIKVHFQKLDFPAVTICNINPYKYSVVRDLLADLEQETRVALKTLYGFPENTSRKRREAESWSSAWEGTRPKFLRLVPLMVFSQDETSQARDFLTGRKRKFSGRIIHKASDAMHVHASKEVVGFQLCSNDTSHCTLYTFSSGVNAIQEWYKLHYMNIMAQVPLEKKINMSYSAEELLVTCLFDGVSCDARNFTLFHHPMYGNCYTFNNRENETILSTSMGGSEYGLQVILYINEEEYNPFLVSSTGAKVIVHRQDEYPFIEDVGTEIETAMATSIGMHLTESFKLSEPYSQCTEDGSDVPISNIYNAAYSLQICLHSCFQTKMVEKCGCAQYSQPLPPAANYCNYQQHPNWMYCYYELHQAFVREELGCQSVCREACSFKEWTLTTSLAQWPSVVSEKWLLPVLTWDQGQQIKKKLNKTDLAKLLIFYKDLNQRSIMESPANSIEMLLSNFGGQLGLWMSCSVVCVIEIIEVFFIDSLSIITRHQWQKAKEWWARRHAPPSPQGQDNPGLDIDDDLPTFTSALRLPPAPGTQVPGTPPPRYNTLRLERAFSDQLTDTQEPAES
Assay: In vitro measure of sodium channel blocking activity (short circuit current, Ussing chambers)
Assay type: cell-based
Details: freshly excised cells from canine airways; lumenal drug addition; short circuit current (ISC)
Procedure: One assay used to assess mechanism of action and/or potency of the compounds of the present invention involves the determination of lumenal drug inhibition of airway epithelial sodium currents measured under short circuit current (ISC) using airway epithelial monolayers mounted in Ussing chambers. Cells obtained from freshly excised human, dog, sheep or rodent airways are seeded onto porous 0.4 micron Snapwell™ Inserts (CoStar), cultured at air-liquid interface (ALI) conditions in hormonally defined media, and assayed for sodium transport activity (ISC) while bathed in Krebs Bicarbonate Ringer (KBR) in Using chambers. All test drug additions are to the lumenal bath with half-log dose addition protocols (from 1×10^−11 M to 3×10^−5 M), and the cumulative change in ISC (inhibition) recorded. […] After the maximal concentration (5×10^−5 M) is administered, the lumenal bath is exchanged three times with fresh drug-free KBR solution, and the resultant ISC measured after each wash for approximately 5 minutes in duration. […] All data from the voltage clamps are collected via a computer interface and analyzed off-line. Dose-effect relationships for all compounds are considered and analyzed by the Prism 3.0 program. IC50 values, maximal effective concentrations, and reversibility are calculated and compared to amiloride and benzamil as positive controls. […]

SMILES: N=C(N)NCCCC[C@H](NC[C@H](O)[C@@H](O)[C@H](O)[C@H](O)CO)C(=O)NCCOc1ccc(CCCCNC(=N)NC(=O)c2nc(Cl)c(N)nc2N)cc1 [Compound I, 3,5-diamino-6-chloro-N—(N-(4-(4-(2-((S)-6-guanidino-2-((2S,3R,4R,5R)-2,3,4,5,6-pentahydroxyhexylamino)hexanamido)ethoxy)phenyl)butyl)carbamimidoyl)pyrazine-2-carboxamide]
- IC50: 13.2 nM
